Source: PubChem BioAssay (NCI)
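All cell lines were grown in 96-well plates and treated with compound for 48 hours. GI50 is the concentration that inhibits growth by half. TGI is the concentration that stops growth completely.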 *1 amine or outer side, *2 acyl side, *3 side chain or, on linkers, in order; H or OH if unused. Where a SMILES comes first, the peptide text is derived from it. Bridges are numbered along the chain shown (N, C = ends). [ ]: non-standard residue; d: D form. The star is where a group is joined. Phe(3,5-F2) = N[C@@H](Cc1cc(F)cc(F)c1)C(=O)O; Pro(4R-Me) = C[C@H]1CN[C@H](C(=O)O)C1; aThr = C[C@H](O)[C@H](N)C(=O)O; Pip = O=C(O)[C@@H]1CCCCN1; X10 = Fc1cc(C2CC2)ccc1N*; CO = O=C([*:1])[*:2]

Tests used:
Assay in all cases: DTP human tumour cell line panel, 48 h
[1] = system: LOX IMVI melanoma
[2] = system: K-562 leukemia
[3] = system: HCT-116 colon
[4] = system: UACC-257 melanoma
[5] = system: TK-10 renal
[6] = system: SK-MEL-5 melanoma
[7] = system: NCI-H23 lung
[8] = system: T-47D breast
[9] = system: HCT-15 colon
[10] = system: SF-295 CNS

SMILES	GI50 [1] [µM]	TGI [1] [µM]	GI50 [2] [µM]	TGI [2] [µM]	GI50 [3] [µM]	TGI [3] [µM]	GI50 [4] [µM]	TGI [4] [µM]	GI50 [5] [µM]	TGI [5] [µM]	GI50 [6] [µM]	TGI [6] [µM]	GI50 [7] [µM]	TGI [7] [µM]	GI50 [8] [µM]	TGI [8] [µM]	GI50 [9] [µM]	TGI [9] [µM]	GI50 [10] [µM]	TGI [10] [µM]
C[C@@H]1C[C@H]2C(=O)O[C@@H](C)[C@H](NC(=O)[C@H](Cc3cc(F)cc(F)c3)NC(=O)Nc3ccc(C4CC4)cc3F)C(=O)N3CCC[C@H]3C(=O)N3CCCC[C@H]3C(=O)N[C@@H](C)C(=O)N2C1 ({X10-CO}-[Phe(3,5-F2)][aThr]P[Pip]A[Pro(4R-Me)]; ester 2-C)	0.0668	11.5	0.0346	> 52.3	0.0414	2.16	0.0413	10.7	0.343	> 35.1	0.0461	1.24	0.0522	35.3	0.0448	> 22.1	0.0796	5.28	0.0438	1.57
COc1cc(/C=N\NC(=O)CN2CCN(c3cc4c(cc3F)c(=O)c(C(=O)N/N=C/c3cc(OC)c(OC)c(OC)c3)cn4C3CC3)CC2)cc(OC)c1OC	0.176	0.343	0.363	> 100	0.219	0.5	0.36	–	> 100	> 100	0.417	5.1	0.237	0.605	0.255	0.767	> 100	> 100	0.685	5.58
CCN1/C(=C\c2cc[n+](CC)c3ccccc23)C=Cc2ccccc21	0.179	1.52	0.0477	12.8	0.124	10.3	0.135	2.36	0.448	13.7	0.0605	0.215	0.0871	7.56	0.0403	1.75	2.84	13.3	0.223	2.9
O=C1NC(=NCCc2cccc(F)c2)S/C1=C\c1ccc2ncccc2c1	1.75	> 25	1.01	> 25	1.3	> 25	9.61	> 25	> 12.4	> 25	3.41	> 25	19.2	> 25	6.89	> 25	0.77	> 25	2.56	> 25
C[N+](C)(C)CC(=O)N/N=C(/CC(=O)CC(C1=C(O)c2ccccc2OC1)c1ccccc1)C(=O)Nc1cccc(Cl)c1 (stereo not drawn)	–	> 100	–	> 100	–	> 100	–	> 100	–	> 100	–	> 100	–	> 100	–	> 100	–	> 100	–	> 100
COc1cc2c(c(OC)c1OC)-c1ccc(NNC(N)=S)c(=O)cc1[C@@H](NC(C)=O)CC2	0.687	> 100	0.348	> 100	0.348	> 32.6	–	> 100	> 26	> 100	0.345	2.52	0.414	> 49.9	> 100	> 100	4.23	> 100	0.63	> 100
Fc1ccc(NC(=S)SCc2ccc3c(c2)OCO3)cc1F	–	28.6	–	59	–	> 100	–	64	–	> 100	–	29.5	–	51.6	–	33	–	34.5	–	> 100
O=C1/C(=C/c2ccc(O)c(O)c2)CCC/C1=C\c1ccc(O)c(O)c1	–	7.68	–	> 60.1	–	7.17	–	17.4	–	14.9	–	3.81	–	11.3	–	> 48.1	–	33.3	–	22.1
Cc1ccnc2c1ccc1c(C)ccnc12	0.367	4.66	0.395	25.9	0.418	13	0.508	7.6	0.588	14.6	0.303	11.8	0.741	20.2	0.883	12.6	0.383	10.4	0.371	11.7
COC(=O)/C=C1\S/C(=N\NC(=O)c2cc3ccc2/C=C\c2ccc(cc2)/C=C\3)N(c2ccccc2)C1=O	1.69	3.37	3.15	> 100	1.79	3.67	5.14	> 100	2.03	5.6	7.56	> 100	1.95	4.15	1.54	3.65	1.87	4.05	2.07	4.19
